Where two headings read alike, the source gives them in different places.
What was measured:
[1] = tested on: HOC 8 human ovarian xenograft; test: Survival of mice bearing intraperitoneal HOC 8 xenograft; assay type: in vivo
Excerpt: In ovarian carcinoma patients the tumor spreads into the peritoneal cavity. Therefore to mimic clinical disease we have selected a human ovarian xenograft, HOC 8, which was transplanted intraperitoneally from ascites and disseminated in the peritoneal cavity.
When the two drugs were combined the effect was much greater than that of each drug given as single agent with a dramatic increase in survival. […] Three animals were still alive after 12 months, two of them belonging to the group receiving the high ET-743 dose. They were sacrificed and a detailed macroscopic and microscopic pathological evaluation was performed. The mouse belonging to the group receiving the low ET-743 dose was apparently cured as the microscopic analysis of liver, splen, pancreas, bone marrow, diagram, ovary uterus omentum and several lymphnodes were negative.

[2] = Dose finding trial ET-743 day 1 & 8 followed by cisplatin: toxicity; assay type: in vivo, human
Experimental: We designed a multicenter dose finding trial, […], with escalating doses of ET given as a 3-hr infusion with steroids and antiemetic prophylaxis, followed 30 minutes later by 1 hr infusion cisplatin at a fixed dose of 40 mg/m^2, with 2 L NS hydration.
(§1) 36 patients were entered (15 with ovarian cancer, 6 with uterus cancer, 14 with soft tissue sarcoma, 1 with other tumor type). Prior treatments of the patients were the following:
ET-743 doses levels were 300, 400, 500, 600 and 700 μg/m^2/day; 3-6 were treated per dose level according to toxicity.
ET-743 escalation was uneventful until 500 μg/m^2; at 600 μg/m^2 patients were accrued in 2 separate risk cohort according to prior chemotherapy extent: low risk 1 regimen (LR); high risk ≧2 regimens (HR).

[3] = assay type: in vivo, human; conditions: ET-743 with carboplatin at a fixed target (300 mg/m^2), cycle 1 data from 11 patients
Experimental: We designed a multicenter dose finding trial, on a day 1 every 3 weeks schedule, with carboplatin given at a fixed dose of 300 mg/m^2 as a 1 hour infusion followed by escalating doses of ET given as a 3 hours infusion with steroids and antiemetic prophylaxis.
11 patients were entered (6 with ovarian cancer, 1 with lung cancer, 4 with soft tissue sarcoma). Prior treatments of the patients were the following:
ET-743 doses levels were 500, 650 and 800 μg/m^2/day; 3-6 pts were treated per dose level according to toxicity.
The maximum tolerated dose (MTD) was defined as the highest dose level tested of the combination at which at least 2 patients experience a DLT in cycle 1. If one patient encountered drug-induced DLT during either cycle 1 or 2, up to a maximum of 6 patients could be treated at that level. If DLT was not observed in the additional patients, new patients could be treated at the next higher dose level.

[4] = tested on: human, murine and canine progenitor cells; conditions: cited from earlier work
[5] = tested on: Ovary, STS gyn, Uterus tumors; test: Dose finding trial ET-743 day 1 & 8 followed by cisplatin: observed efficacy; assay type: in vivo, human
Experimental: We designed a multicenter dose finding trial, on a day 1 & 8 every 3 weeks schedule, with escalating doses of ET given as a 3-hr infusion with steroids and antiemetic prophylaxis, followed 30 minutes later by 1 hr infusion cisplatin at a fixed dose of 40 mg/m^2, with 2 L NS hydration.
as §1
The following table illustrates the observed efficacy: […]

[6] = Toxicity (body weight loss, toxic deaths) of split dose Q4×3; assay type: in vivo; conditions: Q4×3, 1A9 xenograft experiment
[7] = Toxicity of single i.v. doses of ET-743, DDP and their combination in xenograft experiments; assay type: in vivo; conditions: drug alone
Experimental: For the administration of the drugs appropriate vehicles were injected, using the same schedule and route of injection as the drug therapies. […] In xenografts transplanted s.c. tumor growth was monitored and tumor weight (TW) was determined by measuring the tumor diameters with a Vernier caliper every 2-4 days and using the formula TW=d^2×D/2 (where d and D represent the shortest and the longest diameter respectively).

SMILES | ILS ([1]; DDP monotherapy) [%] | MTD ([2]; ET-743 with cisplatin 40 mg/m^2, previously treated patients, day 1 & 8 every 4 weeks) [μg/m^2] | Recommended dose (RD) ([2]; human, in vivo) [μg/m^2] | MTD [3] [μg/m^2] | ILS ([1]; ET-743 0.15 mg/kg, Q4×3, monotherapy) [%] | ILS ([1]; ET-743 0.05% (printed), Q4×3, monotherapy) [%] | sensitivity of hematopoietic progenitors [4] | TTP ([5]; patient: Ovary, prior carboplatin + taxol (NC), topotecan (PD), ET-743 400 μg/m^2 D 1&8 + cisplatin, Lung) [mos] | TTP ([5]; patient: Ovary, prior carboplatin + taxol (NE), paclitaxel (PD), ET-743 600 μg/m^2 D 1&8 + cisplatin, Pelvis, liver) | BEST RESP ([5]; patient: Ovary, prior carboplatin + taxol (PR), ET-743 600 μg/m^2 D 1&8 + cisplatin, Liver Abdomen) | TTP ([5]; patient: STS gyn, prior adriamycin/ifosfamide (AD), ET-743 700 μg/m^2 D 1&8 + cisplatin, Lung) | TTP ([5]; patient: STS-gyn, prior epirubicin + ifosfamide (AD), gemcitabine (PD), ET-743 500 μg/m^2 D 1&8 + cisplatin, Abdomen) | BEST RESP ([5]; patient: STS-gyn, prior epirubicin + ifosfamide (AD), gemcitabine (PD), ET-743 500 μg/m^2 D 1&8 + cisplatin, Abdomen, wrapped cell reads Radiological PR non measurable lesions) | TTP ([5]; patient: Uterus Colon, prior carboplatin (NE), taxol + epirubicin + cisplatin (CR), ET-743 400 μg/m^2 D 1&8 + cisplatin, Bone, Pelvis, Lung) [mos] | BEST RESP ([5]; patient: Uterus Colon, prior carboplatin (NE), taxol + epirubicin + cisplatin (CR), ET-743 400 μg/m^2 D 1&8 + cisplatin, Bone, Pelvis, Lung, wrapped cell reads Radiological PR non measurable lesions) | mean body weight loss [6] [%] | maximal single i.v. dose that caused no toxic death [7] [mg/kg]
N.N.[Cl][Pt][Cl] [DDP, cis-diaminedichloroplatinum (II), reference compound] | 139 | – | – | – | – | – | – | – | – | – | – | – | – | – | – | – | –
COc1cc2c(cc1O)CCN[C@]21CS[C@@H]2c3c(OC(C)=O)c(C)c4c(c3[C@H](COC1=O)N1C2[C@H]2c3c(cc(C)c(OC)c3O)C[C@@H]([C@@H]1O)N2C)OCO4 (some centres unmarked) [ET-743, ecteinascidin-743] | – | 700 | 500 | 800 | 23 | 21 | equal sensitivity of erythropoid and myeloid cells | 6 | 6+ mos | Unc PR | 3+ mos | 5+ mos | Radiological | 1 | Radiological | 14 | 0.2

Source: patent US20070128201A1, “Combined use of ecteinascidin-743 and platinum antineoplastic compounds” (Pharma Mar, S.A.U., priority 2003, published 2007)
